Test results from patent US20060052282A1, “Diagnostic and therapeutic means for pathologies associated with alpha 2 subunit of the na, k pump” (priority 2002, published 2006).

What was measured:
HeLa cells = assay: Ouabain treatment of transfected HeLa cells (survival, MTT cell viability); assay type: cell-based, human; settings: 1 μM ouabain
Experimental: Constructs were transfected by calcium phosphate (HeLa cells) following standard procedures or by Lipofectamine (COS-7 cells), (Gibco, Invitrogene Co., Carlsbad, Calif., USA).
Cell viability was measured with the MTT (13) reduction assay after 12, 24, 36, 48 and 60 hours. Each experiment was made in triplicate and statistical analysis was done by Student's t-test (homoscedastic).
(§1) As all vertebrate cells present Na,K ATPase activity, the endogenous Na,K pump activity of HeLa cells was quenched to test the ion transport performance of the exogenous mutant forms. A site-directed mutagenesis was carried out to abolish the natural ouabain sensitivity of the ATP1A2 construct by mutagenizing two amino acids, Q116R and N127D, in the first extracellular loop that is part of the ouabain binding site of Na,K ATPase (15).
Constructs were transfected by calcium phosphate (HeLa cells) following standard procedures.
Cell viability was measured with the MTT reduction assay after 24,48 and 72 hours of 1 μM ouabain challenge. We performed two independent experiments and in each experiment, datapoints are in triplicate.

HEK293 = assay: Ouabain treatment of transfected HEK293 cells; assay type: cell-based, human; settings: 1 μM ouabain; pA2Oua^r-wt versus mock transfected cells
Experimental: as §1

Structure (SMILES): C[C@@H]1O[C@@H](O[C@H]2C[C@@H](O)[C@]3(CO)[C@H]4[C@H](O)C[C@]5(C)[C@@H](C6=CC(=O)OC6)CC[C@]5(O)[C@@H]4CC[C@]3(O)C2)[C@H](O)[C@H](O)[C@H]1O [ouabain]
- cell survival in ouabain-containing media (HeLa cells; HeLa cells transfected with ouabain-resistant ATP1A2 construct pA2Oua^r-wt): can survive and grow
- cell survival under ouabain treatment (HeLa cells; HeLa cells transfected with ouabain-resistant T378N (AHC) ATP1A2 construct): did not survive
- cell survival under ouabain treatment (HeLa cells; HeLa cells transfected with pA2Oua^r-P764 (L764P)): failed to survive
- cell survival under ouabain treatment (HeLa cells; HeLa cells transfected with pA2Oua^r-R887 (W887R)): failed to survive
- time to death of cells in ouabain-containing media (HeLa cells; mock transfected HeLa cells (wild-type ATP1A2, non-ouabain resistant)): 36 to 48 h
- cell survival under ouabain treatment (HeLa cells; simulated heterozygous state, equal amount of wild-type and T378N mutant cDNAs): intermediate behaviour
- cell survival under ouabain treatment (HeLa cells; simulated heterozygous states, equal amounts of wild-type and mutant (P764 or R887) constructs): intermediate behavior
- cell survival in ouabain-containing media compared with HeLa (HEK293): Identical results
